Experimental findings from PMC9740789, “Investigation of In Vitro and In Vivo Metabolism of α-Amanitin in Rats Using Liquid Chromatography-Quadrupole Time-of-Flight Mass Spectrometric Method” (Molecules, 2022) are described below.

Structures are written as SMILES.

A short description of this data set: Rat in vivo MetID in pooled rat plasma. The note with it: pooled rat plasma after IV 1 mg/kg. On the procedure:
Therefore, in vitro and in vivo MetID were conducted to explore any possible different metabolites between the two systems. The in vitro and in vivo MetID samples were analyzed by a LC-qTOF-MS, and the data were used to elucidate a metabolite of α-amanitin using PeakView® and MetabolitePilot™. The structure of the metabolite of α-amanitin was predicted by MetabolitePilot™. The fragmentation pattern of the predicted metabolite ion from product ion scan was compared to the fragmentation pattern of the parent ion using PeakView®.
For rat in vivo MetID, rat plasma samples collected after IV administration of α-amanitin with the dose of 1 mg/kg were pooled according to the Hamilton pooling method. Then 3 μL of DMSO was added to the 300 μL of pooled rat plasma. A control sample was made by mixing 300 μL of blank rat plasma and 3 μL of 0.5 mg/mL α-amanitin. Eight hundred microliter of 50% ACN in MeOH was added to the pooled rat plasma mixture and a control sample, respectively. Then the mixture was centrifuged at 10,000 rpm for 5 min. Then 900 μL of the supernatants was collected to a fresh E-tube and evaporated for 4 h. After evaporation, samples were reconstituted with 120 μL of 50% MeOH with 5 mM ammonium formate. After centrifugation at 10,000 rpm for 5 min, 100 μL of reconstituted sample was transferred to a LC-vial.
The high-resolution TOF full scan was used for metabolite profiling. […]

For `CC[C@H](C)[C@@H]1NC(=O)CNC(=O)[C@@H]2Cc3c([nH]c4cc(O)ccc34)[S@+]([O-])C[C@H](NC(=O)CNC1=O)C(=O)N[C@@H](CC(N)=O)C(=O)N1C[C@H](O)C[C@H]1C(=O)N[C@@H]([C@@H](C)[C@@H](O)CO)C(=O)N2` [α-amanitin], the “Other metabolites in in vivo rat plasma” value is “no other significant metabolites”.
